What was measured:
Assay in all cases: Di-E-GSSG fluorescent reductase assay
Format in all cases: biochemical
[1] = target: protein disulfide isomerase (PDI) (Homo sapiens, UniProt P07237)
[2] = target: T1, ERp57 (Homo sapiens, UniProt P30101)
T1 sequence (P30101 25-505): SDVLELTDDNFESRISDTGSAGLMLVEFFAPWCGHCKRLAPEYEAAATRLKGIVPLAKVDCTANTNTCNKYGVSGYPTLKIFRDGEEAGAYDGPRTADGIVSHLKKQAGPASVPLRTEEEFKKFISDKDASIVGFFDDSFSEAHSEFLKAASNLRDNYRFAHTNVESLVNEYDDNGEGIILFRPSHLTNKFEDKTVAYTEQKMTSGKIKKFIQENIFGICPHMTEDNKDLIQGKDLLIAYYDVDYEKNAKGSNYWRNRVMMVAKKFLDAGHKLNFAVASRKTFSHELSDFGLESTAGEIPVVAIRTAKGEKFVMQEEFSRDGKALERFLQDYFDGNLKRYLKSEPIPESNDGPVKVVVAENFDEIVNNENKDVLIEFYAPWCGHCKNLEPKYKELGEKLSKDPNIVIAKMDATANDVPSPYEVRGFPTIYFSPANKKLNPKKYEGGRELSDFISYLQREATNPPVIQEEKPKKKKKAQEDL

[3] = target: T2, ERp72 (Homo sapiens, UniProt P13667)
T2 sequence (P13667 21-645): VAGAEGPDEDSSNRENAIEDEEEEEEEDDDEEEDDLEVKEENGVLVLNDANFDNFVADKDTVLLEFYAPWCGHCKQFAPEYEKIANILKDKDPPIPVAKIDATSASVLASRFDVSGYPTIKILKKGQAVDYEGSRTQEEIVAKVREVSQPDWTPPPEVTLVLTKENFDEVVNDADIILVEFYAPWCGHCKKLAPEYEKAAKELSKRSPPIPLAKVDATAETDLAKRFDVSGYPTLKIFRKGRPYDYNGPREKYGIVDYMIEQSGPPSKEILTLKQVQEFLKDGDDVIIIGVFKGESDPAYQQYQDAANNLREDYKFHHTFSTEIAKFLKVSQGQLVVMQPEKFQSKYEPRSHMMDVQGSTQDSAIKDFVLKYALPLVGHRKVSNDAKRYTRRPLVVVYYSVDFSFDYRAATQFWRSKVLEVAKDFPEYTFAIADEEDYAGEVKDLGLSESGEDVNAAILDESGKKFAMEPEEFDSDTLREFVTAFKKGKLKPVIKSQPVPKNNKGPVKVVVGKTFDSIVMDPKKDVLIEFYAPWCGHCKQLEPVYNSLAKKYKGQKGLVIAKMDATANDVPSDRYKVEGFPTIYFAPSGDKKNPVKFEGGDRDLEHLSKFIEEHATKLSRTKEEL

[4] = target: T3, ERp5 (Homo sapiens, UniProt Q15084)
T3 sequence (Q15084 20-440): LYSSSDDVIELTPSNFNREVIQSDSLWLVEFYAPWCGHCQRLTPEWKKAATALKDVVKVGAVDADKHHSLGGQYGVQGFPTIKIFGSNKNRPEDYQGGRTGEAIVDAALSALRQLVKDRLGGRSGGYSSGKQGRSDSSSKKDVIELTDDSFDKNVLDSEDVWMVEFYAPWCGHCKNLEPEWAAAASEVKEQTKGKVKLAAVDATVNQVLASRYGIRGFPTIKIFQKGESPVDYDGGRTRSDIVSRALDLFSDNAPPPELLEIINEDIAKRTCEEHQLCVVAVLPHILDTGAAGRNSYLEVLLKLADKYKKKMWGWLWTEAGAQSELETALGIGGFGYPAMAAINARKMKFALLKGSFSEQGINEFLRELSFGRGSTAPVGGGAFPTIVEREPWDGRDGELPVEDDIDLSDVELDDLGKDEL

Chain of protein disulfide isomerase (PDI) (P07237 18-508): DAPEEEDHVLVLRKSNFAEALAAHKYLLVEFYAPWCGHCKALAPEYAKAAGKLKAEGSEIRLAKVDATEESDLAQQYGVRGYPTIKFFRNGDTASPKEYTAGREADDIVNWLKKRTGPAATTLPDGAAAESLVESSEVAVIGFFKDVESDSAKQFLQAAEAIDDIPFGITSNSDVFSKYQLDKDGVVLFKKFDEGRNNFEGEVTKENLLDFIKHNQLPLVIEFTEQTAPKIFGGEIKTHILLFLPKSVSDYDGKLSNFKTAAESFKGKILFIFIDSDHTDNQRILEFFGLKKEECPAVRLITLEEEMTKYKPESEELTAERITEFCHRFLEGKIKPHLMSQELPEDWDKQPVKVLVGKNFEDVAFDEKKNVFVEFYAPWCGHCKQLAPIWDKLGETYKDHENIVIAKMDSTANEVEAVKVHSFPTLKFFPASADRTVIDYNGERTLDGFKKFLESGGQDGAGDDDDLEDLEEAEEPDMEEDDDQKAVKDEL

In the case of `COc1cc(/C=C/[N+](=O)[O-])ccc1OC(=O)c1cccc(Cl)c1Cl` [HPW-RX40, 2-Methoxy-4-[(E)-2-nitrovinyl]phenyl 2,3-dichlorobenzoate], the IC50 [1] is reported as 1.45 µM, the IC50 [2] is reported as 4.3 µM and the IC50 [3] is reported as 18.8 µM. The IC50 [4] was 2.6 µM.

— paper PMC5466588 (Redox Biology, 2017)
